{
  "source": "ChEMBL document CHEMBL1129317",
  "about": "“Novel selective and partial agonists of 5-HT3 receptors. Part 1. Synthesis and biological evaluation of piperazinopyrrolothienopyrazines” (J Med Chem, 1996)",
  "key": {"[1]": {"target": "Glutamate receptor ionotropic AMPA (Homo sapiens) (UniProt P48058+P42263+P42262+P42261)", "experiment": "Inhibitory activity against Quisqualate receptor using [3H]AMPA at […] (M)", "format": "protein-complex assay"}, "[2]": {"tested_on": "NG108-15", "experiment": "In vitro effective concentration against [14C]guanidinium uptake into NG 108-15 cells", "format": "functional, cell-based", "settings": "Murinae"}, "[3]": {"target": "Thromboxane A2 receptor (Homo sapiens) (UniProt P21731)", "sequence (P21731 whole entry)": "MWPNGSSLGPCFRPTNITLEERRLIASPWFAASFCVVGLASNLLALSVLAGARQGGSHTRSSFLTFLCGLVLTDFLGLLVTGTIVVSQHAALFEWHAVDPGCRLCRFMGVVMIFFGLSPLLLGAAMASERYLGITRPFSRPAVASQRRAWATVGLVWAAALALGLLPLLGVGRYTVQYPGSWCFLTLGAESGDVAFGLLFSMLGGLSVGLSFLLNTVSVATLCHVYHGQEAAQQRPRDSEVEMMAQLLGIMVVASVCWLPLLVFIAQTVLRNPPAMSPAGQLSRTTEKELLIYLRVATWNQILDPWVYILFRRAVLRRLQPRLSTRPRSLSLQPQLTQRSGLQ", "experiment": "Inhibitory activity against Thromboxane A2 using [3H]SG-29548 at 10e-5 (M)"}, "[4]": {"target": "D(2) dopamine receptor (Homo sapiens) (UniProt P14416)", "sequence (P14416 whole entry)": "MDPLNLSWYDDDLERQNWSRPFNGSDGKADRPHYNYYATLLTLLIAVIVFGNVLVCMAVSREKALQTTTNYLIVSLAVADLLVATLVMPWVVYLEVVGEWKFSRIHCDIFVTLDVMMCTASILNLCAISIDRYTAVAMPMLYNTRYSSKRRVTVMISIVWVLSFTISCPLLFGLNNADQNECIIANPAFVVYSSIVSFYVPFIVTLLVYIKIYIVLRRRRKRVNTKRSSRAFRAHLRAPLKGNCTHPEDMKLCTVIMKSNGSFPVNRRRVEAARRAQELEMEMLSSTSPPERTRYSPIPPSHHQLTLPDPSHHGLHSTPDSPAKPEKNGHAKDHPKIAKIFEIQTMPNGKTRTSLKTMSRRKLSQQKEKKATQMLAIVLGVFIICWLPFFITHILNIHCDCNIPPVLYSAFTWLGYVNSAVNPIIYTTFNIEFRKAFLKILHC", "experiment": "In vitro displacement from Dopamine receptor D2", "settings": "concentration not given here"}, "[5]": {"target": "Kappa-type opioid receptor (Homo sapiens) (UniProt P41145)", "sequence (P41145 whole entry)": "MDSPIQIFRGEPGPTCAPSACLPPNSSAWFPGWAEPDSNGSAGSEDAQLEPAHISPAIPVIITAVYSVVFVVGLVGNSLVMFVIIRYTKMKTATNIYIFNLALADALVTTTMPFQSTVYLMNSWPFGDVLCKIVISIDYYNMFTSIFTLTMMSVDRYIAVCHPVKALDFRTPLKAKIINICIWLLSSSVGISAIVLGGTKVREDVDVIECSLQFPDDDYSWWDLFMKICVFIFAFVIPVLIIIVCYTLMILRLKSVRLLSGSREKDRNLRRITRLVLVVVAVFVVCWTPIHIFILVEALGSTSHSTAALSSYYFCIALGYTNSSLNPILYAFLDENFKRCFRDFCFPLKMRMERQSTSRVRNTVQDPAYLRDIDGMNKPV", "experiment": "Inhibitory activity against Opioid receptor kappa 1 using [3H]U-69593 at 10e-7 (M)"}, "[6]": {"target": "T1, 5-hydroxytryptamine receptor 1A (Homo sapiens, UniProt P08908)", "T1 sequence (P08908 whole entry)": "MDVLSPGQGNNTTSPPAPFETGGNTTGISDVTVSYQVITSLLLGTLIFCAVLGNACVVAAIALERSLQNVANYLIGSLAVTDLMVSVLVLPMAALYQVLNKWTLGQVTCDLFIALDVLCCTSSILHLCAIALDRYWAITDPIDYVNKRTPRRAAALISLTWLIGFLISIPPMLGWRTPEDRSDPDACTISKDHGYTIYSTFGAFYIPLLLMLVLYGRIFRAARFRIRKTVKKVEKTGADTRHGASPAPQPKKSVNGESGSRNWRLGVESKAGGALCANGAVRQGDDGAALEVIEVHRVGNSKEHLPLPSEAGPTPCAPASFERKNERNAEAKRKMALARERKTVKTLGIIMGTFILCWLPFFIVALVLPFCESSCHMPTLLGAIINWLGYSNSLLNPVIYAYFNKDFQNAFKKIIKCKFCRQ", "experiment": "Binding affinity for 5-hydroxytryptamine 1A receptor"}, "[7]": {"target": "Delta-type opioid receptor (Rattus norvegicus) (UniProt P33533)", "sequence (P33533 whole entry)": "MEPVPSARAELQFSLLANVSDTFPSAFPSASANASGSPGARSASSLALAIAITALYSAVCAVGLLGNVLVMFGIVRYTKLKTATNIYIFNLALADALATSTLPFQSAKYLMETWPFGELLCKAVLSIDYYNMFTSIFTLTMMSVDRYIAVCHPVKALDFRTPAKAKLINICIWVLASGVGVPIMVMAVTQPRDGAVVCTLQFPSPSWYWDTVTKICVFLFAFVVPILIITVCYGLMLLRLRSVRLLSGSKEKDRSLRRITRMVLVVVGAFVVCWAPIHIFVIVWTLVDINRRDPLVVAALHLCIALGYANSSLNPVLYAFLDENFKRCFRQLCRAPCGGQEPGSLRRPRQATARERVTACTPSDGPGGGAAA", "experiment": "Inhibitory activity against Opioid receptor delta 1 using [3H]Cl-phe-DPDPE at 10e-5 (M)"}, "[8]": {"target": "Platelet-activating factor receptor (Homo sapiens) (UniProt P25105)", "sequence (P25105 whole entry)": "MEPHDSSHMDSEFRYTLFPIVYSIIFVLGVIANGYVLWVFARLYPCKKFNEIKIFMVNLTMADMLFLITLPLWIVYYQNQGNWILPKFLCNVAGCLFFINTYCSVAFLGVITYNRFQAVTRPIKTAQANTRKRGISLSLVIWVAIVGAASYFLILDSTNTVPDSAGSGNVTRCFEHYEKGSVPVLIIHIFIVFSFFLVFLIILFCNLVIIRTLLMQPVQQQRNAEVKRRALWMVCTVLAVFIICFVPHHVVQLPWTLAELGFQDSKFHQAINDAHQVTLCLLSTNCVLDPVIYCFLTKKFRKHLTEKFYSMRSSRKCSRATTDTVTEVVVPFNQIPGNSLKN", "experiment": "Inhibitory activity against Platelet activating factor receptor using [3H]PAF at […] (M)"}, "[9]": {"target": "Cysteinyl leukotriene receptor 1 (Homo sapiens) (UniProt Q9Y271)", "sequence (Q9Y271 whole entry)": "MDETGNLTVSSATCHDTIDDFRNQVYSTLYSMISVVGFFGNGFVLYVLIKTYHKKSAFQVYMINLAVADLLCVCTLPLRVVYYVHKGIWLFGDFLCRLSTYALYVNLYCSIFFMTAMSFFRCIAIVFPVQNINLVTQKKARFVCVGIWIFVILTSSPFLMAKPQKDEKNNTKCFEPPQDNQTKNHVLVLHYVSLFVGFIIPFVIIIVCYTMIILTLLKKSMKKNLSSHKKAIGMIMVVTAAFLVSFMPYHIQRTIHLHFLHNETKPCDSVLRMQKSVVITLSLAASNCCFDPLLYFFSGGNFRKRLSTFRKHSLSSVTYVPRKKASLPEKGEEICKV", "experiment": "Inhibitory activity against Cysteinyl leukotriene D4 receptor using [3H]- LTD4 at […] (M)"}, "[10]": {"target": "Adrenergic receptor alpha-1 (Homo sapiens) (UniProt P35348+P25100+P35368)", "experiment": "Inhibitory activity against Alpha-1 adrenergic receptor using [3H]-prazosin at 10e-5 (M)", "format": "protein assay"}, "[11]": {"target": "Angiotensin II receptor (Homo sapiens) (UniProt P30556+P50052)", "experiment": "Inhibitory activity against Angiotensin II receptor using [3H]Angiotensin II at […] (M)", "format": "protein assay"}, "[12]": {"target": "T2, Serotonin 3 (5-HT3) receptor (Rattus norvegicus, UniProt P35563+Q9JJ16)", "T2 sequence (P35563 whole entry)": "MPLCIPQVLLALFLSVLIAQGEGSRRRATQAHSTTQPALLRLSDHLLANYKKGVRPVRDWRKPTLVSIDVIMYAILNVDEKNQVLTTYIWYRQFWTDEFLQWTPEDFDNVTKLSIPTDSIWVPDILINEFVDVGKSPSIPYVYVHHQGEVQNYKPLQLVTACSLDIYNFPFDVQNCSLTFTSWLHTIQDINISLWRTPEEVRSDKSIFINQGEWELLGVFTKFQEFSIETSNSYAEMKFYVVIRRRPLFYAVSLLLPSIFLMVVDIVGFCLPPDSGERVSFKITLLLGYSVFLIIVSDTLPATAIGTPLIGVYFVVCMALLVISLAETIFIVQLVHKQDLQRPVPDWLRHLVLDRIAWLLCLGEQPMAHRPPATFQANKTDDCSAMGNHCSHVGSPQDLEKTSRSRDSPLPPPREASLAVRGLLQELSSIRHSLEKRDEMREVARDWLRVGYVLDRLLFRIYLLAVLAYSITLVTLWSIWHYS", "T2 sequence (Q9JJ16 whole entry)": "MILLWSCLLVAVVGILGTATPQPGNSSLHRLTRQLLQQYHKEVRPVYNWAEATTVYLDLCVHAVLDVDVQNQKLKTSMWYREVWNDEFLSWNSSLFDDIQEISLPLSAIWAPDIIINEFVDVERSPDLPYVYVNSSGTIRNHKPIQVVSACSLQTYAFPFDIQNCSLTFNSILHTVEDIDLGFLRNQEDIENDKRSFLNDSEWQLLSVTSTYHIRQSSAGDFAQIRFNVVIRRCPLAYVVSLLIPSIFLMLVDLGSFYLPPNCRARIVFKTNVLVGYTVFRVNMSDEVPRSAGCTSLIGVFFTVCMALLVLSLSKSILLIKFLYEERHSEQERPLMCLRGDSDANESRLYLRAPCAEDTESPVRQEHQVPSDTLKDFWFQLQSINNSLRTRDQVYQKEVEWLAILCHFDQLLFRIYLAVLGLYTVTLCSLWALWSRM", "experiment": "Binding affinity towards 5-hydroxytryptamine 3 receptor", "format": "protein-complex assay"}, "[13]": {"experiment": "Inhibitory activity against Bradykinin receptor using [3H]bradykinin at […] (M)"}, "[14]": {"experiment": "Inhibition of [3H]apamin binding to Potassium channel at 10e-5 M"}, "[15]": {"experiment": "Inhibition of [3H]batrachotoxin binding to sodium channel at 10e-5 M"}, "[16]": {"target": "Serotonin 3 (5-HT3) receptor (Rattus norvegicus) (UniProt P35563+Q9JJ16)", "experiment": "Agonistic activity of compound towards 5-hydroxytryptamine 3 receptor in Von Bezold-Jarisch Reflex in rats at 60 (ug/kg), evaluated as change in heart rate", "format": "functional"}, "[17]": {"target": "Mu-type opioid receptor (Homo sapiens) (UniProt P35372)", "sequence (P35372 whole entry)": "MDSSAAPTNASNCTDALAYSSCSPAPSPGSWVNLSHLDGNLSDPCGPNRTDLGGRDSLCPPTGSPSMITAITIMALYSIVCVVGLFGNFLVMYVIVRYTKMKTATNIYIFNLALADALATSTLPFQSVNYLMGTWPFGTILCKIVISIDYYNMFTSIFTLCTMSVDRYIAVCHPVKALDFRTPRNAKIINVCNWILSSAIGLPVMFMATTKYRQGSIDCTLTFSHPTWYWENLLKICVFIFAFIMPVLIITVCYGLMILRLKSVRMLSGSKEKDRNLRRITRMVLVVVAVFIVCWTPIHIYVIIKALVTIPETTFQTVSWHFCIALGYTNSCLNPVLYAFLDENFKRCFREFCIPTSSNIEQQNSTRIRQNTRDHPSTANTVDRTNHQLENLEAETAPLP", "experiment": "Inhibitory activity against Opioid receptor mu 1 using [3H]DAMGO at 10e-5 (M)"}, "[18]": {"target": "Kappa-type opioid receptor (Homo sapiens) (UniProt P41145)", "experiment": "Inhibitory activity against Opioid receptor kappa 1 using [3H]U-69593 at 10e-5 (M)"}},
  "data": [
    {"compound": "c1ccc(CN2CCN(c3nc4ccsc4n4cccc34)CC2)cc1", "values": [
      {"measurement": "inhibition", "setting": "[1]", "result": 24, "unit": "%"},
      {"measurement": "EC50", "setting": "[2]", "result": 0.01, "unit": "µM"},
      {"measurement": "inhibition", "setting": "[3]", "result": 32, "unit": "%"},
      {"measurement": "inhibition", "setting": "[4]", "result": 86, "unit": "%"},
      {"measurement": "inhibition", "setting": "[5]", "result": 10, "unit": "%"},
      {"measurement": "IC50", "setting": "[6]", "result": 0.398, "unit": "µM"},
      {"measurement": "inhibition", "setting": "[7]", "result": 14, "unit": "%"},
      {"measurement": "inhibition", "setting": "[8]", "result": 2, "unit": "%"},
      {"measurement": "inhibition", "setting": "[9]", "result": 1, "unit": "%"},
      {"measurement": "inhibition", "setting": "[10]", "result": 26, "unit": "%"},
      {"measurement": "inhibition", "setting": "[11]", "result": 18, "unit": "%"},
      {"measurement": "IC50", "setting": "[12]", "result": 0.00141, "unit": "µM"},
      {"measurement": "inhibition", "setting": "[13]", "result": 28, "unit": "%"},
      {"measurement": "inhibition", "setting": "[14]", "result": 6, "unit": "%"},
      {"measurement": "inhibition", "setting": "[15]", "result": 79, "unit": "%"},
      {"measurement": "Change", "setting": "[16]", "result": 0, "unit": "%"},
      {"measurement": "inhibition", "setting": "[17]", "result": 29, "unit": "%"},
      {"measurement": "inhibition", "setting": "[18]", "result": 55, "unit": "%"}
    ]}
  ]
}
